“And” between values parts separate entries of the source, which are not always exact repeats. Equal entries are not always repeated.
Experiments:
[1] = tested on: CCl4-induced liver fibrosis in rats; experiment: Histological assessment (H&E) of livers in CCl4-induced liver fibrosis; format: in vivo; conditions: nine weeks
Procedure: (§1) After a two-week acclimation period, 52 rats were randomly divided into five groups (each group approximately consisted of ten rats). (1) Normal group: rats were fed with regular diet and distilled water and were injected intraperitoneally with olive oil (2 mL/kg body weight per day, i.p. twice per week) for nine weeks; (2) Model group: rats were feeding with the same quantity as the normal group and were injected with 40% CCl4/olive oil (2 mL/kg body weight, twice per week) for nine weeks to induce liver fibrosis; (3) Low-dose group: rats were fed with the same quantity as the normal group and were administered intraperitoneal injections with 40% CCl4/olive oil (2 mL/kg body weight, twice per week) and with a low dose (14 mg/kg body weight, once per day) Oxy-Di-OA treatment for nine weeks; (4) High-dose group: rats were fed with the same quantity as the normal group and were treated with 40% CCl4/olive oil (2 mL/kg body weight twice per week) and with a high dose (28 mg/kg body weight, once per day) Oxy-Di-OA treatment for nine weeks; (5) Positive control group: rats were fed with the same quantity as the normal group and were administered 40% CCl4/olive oil (2 mL/kg body weight, twice per week) and with bifendate (10.5 mg/kg body weight, once per day) for nine weeks.
(§2) At 48 h after the final injection of CCl4, all rats were anaesthetized with chloral hydrate, and the blood samples were collected from the aorta abdominalis. The serum samples were obtained by centrifugation at 3000 rpm for 15 min to obtain the supernatant and were kept frozen at −80 °C until biochemical analysis. Livers and spleens were immediately removed, rinsed in ice-cold saline, and weighed. The data were used for calculating liver and spleen indices. Then a portion of each liver was fixed in 4% buffered formaldehyde, embedded in paraffin blocks, and stained with hematoxylin-eosin (H&E) for histological and biochemical analyses. The rest of the tissues were stored at −80 °C until required.

TGF-β1 = experiment: Immunohistochemical staining of TGF-β1 in liver tissue, CCl4-induced liver fibrosis; format: in vivo; conditions: nine weeks, CCl4 rats
Procedure: as §1
Immunostaining was conducted as paraffin-embedded liver tissue sections of 5 µm thickness to determine the expression and distribution of TGF-β1 in the liver tissue of rats. Tissues were treated with 3% H2O2 in distilled water for 10 min to block endogenous peroxidase activity followed by another wash, and then blocked with 5% BSA blocking buffer for 20 min. Then, after endogenous peroxidase blockage, the sections were incubated with TGF-β1 primary antibody (1:50 dilution) at 4 °C overnight. The next day, they were washed three times with PBS (phosphate-buffered saline) and then incubated with HRP-labelled goat-anti-rabbit secondary antibodies at 37 °C for 30 min. […] The expression of TGF-β1 in liver tissues was analyzed under a light microscope (Olympus, Tokyo, Japan).

[2] = tested on: CCl4-induced liver fibrosis in rats; experiment: Serum ALT and AST in CCl4-induced liver fibrosis; format: in vivo; conditions: mean ± SD
Procedure: as §1, §2
According to the corresponding manufacturer’s protocols, plasma samples were prepared after finishing animal experiments and determined using ALT and AST diagnostic kits. The ALT and AST enzyme activities were measured by the third affiliated hospital of Beijing University of Chinese Medicine (Beijing, China).

[3] = tested on: CCl4-induced liver fibrosis in rats; experiment: Liver and spleen indices in CCl4-induced liver fibrosis; format: in vivo; conditions: mean ± SD
Procedure: as §1, §2
We used the percentage of the body weight to represent relative weights of the liver and spleen, respectively. The indices of liver and spleen were expressed as Wl/Wm and Ws/Wm, respectively. The Wl and Ws represented the average liver and spleen weight of each group, respectively, and Wm was the average rat body weight of each group.

[4] = Acute toxicity assay via intraperitoneal injection; format: in vivo, Kunming mice; conditions: male, Kunming, mouse, in vivo, ip, mice, Käber assessment
Procedure: (§3) According to previous studies, Oxy-Di-OA was further investigated for its approximate LD50 and 95% confidence interval (CIs) value in mice. Male Kunming mice, weighing 20 ± 2 g were randomly divided into eleven groups of six individuals matched by weight and size. The mice had fasted for 12 h, but water was allowed ad libitum before the acute toxicity experiments.
(§4) The maximum suspended dose (900 mg/kg) of Oxy-Di-OA was prepared in bean oil solution. One group of mice was injected intraperitoneally with bean oil as a normal control. Then the other five groups of mice were given intraperitoneal injections of Oxy-Di-OA in doses of 178, 422, 600, 750, and 900 mg/kg, respectively. The mice were observed continuously for 1 h after such treatment and then intermittently for 4 h, and thereafter over a period of 24 h. The mice were further observed for up to seven days following treatment for any situations of poisoning and deaths and the latency of death. Some abnormal behaviors were recorded.
(§5) The acute toxicity assay via intraperitoneal injection was evaluated by LD50 and 95% CIs which were calculated by Käber assessment.

mice = experiment: Acute toxicity assay via intraperitoneal injection; format: in vivo, Kunming mice
Procedure: as §3, §4, §5

[5] = Acute toxicity assay via gavage; conditions: male, Kunming, mouse, in vivo; mice, gavage (oral administration), doses up to 2000 mg/kg
Procedure: as §3
One group of mice was orally administered bean oil as a normal control. Then the other four groups of mice were given gavage of Oxy-Di-OA in doses of 200, 500, 1000, and 2000 mg/kg, respectively. The mice were observed continuously for 1 h after such treatment and then intermittently for 4 h, and thereafter over a period of 24 h. The mice were further observed for up to seven days following treatment for any signs of toxicity, death, and the latency of death. Abnormal symptoms were recorded immediately.
The acute toxicity test via gavage was evaluated by LD50.

[6] = Pharmacokinetic study after single-dose oral administration (HPLC-UV); format: in vivo, SD rats; conditions: rats
Procedure: The LC system is made up of an Agilent 1100 HPLC system (Agilent Corporation, USA) coupled with a reverse-phase Agilent TC-C18 analytical column (4.6 mm × 250 mm, 5 µm particle size). The column temperature set at 25 °C. The column used during the pharmacokinetic assay was eluted at a flow rate of 1 mL/min, and the solvent consisted of 98% methanol and 2% aqueous solution. The detection wavelength was 278 nm and the injection volume was 10 μL. Healthy SD rats had no access to food until 12 h after dose administration, while water was free to access throughout the experiments. To determine the drug concentrations and to calculate the pharmacokinetic parameters, blood was obtained from the ophthalmic vein and collected with heparinized microcentrifuge tubes. The plasma was separated by centrifuging the blood samples at 4000 rpm for 15 min. Plasma stored in a freezer at −20 °C was thawed at 4 °C before treatment. After that, 15 μL of IS (50.4 μg/mL) working solution was added to such a plasma sample (200 μL), followed by vortex-mixing for 1 min to obtain the mixture. Then we added 600 μL acetonitrile to the mixture and vortexed for 5 min. After that, the mixture was centrifuged at 12,000 rpm for 5 min at 4 °C. […] The residue was then reconstituted in 100 μL methanol, and stirred and vortexed for 1 min. The solution was centrifuged at 12,000 rpm for 5 min to obtain the supernatant. Finally, 10 μL of supernatant was injected into the HPLC system for further analysis. Oxy-Di-OA was dissolved in normal saline before using. Before administration of drug, six SD rats had no access to food overnight but water was allowed free access. A single dose (500 mg/kg) of Oxy-Di-OA solution was administered orally to rats. After that, the blood samples were collected with heparinized microcentrifuge tubes at 1, 2, 6, 8, 10, 12, 14, 16 and 20 h. Plasma was separated by centrifugation (4000 rpm, 10 min, and 15 °C) and kept at −20 °C until necessary.

[7] = Stability of Oxy-Di-OA in rat plasma and processed samples; format: physicochemical
Procedure: The stability of Oxy-Di-OA was investigated by analyzing the QC samples over three levels under different conditions, including −20 °C for 10 and 20 days (long-term stability), and room temperature for one day (short-term stability). In addition, the concentration of Oxy-Di-OA would be detected in the above samples to compare with the initial value in order to determine whether it has changed or not.

HBV (Hepatitis B Virus) = tested on: HBV (Hepatitis B Virus); set-up: method as in PMID 27023498; conditions: previous studies; cited from earlier work
[8] = bifendate 10.5 mg/kg once per day
[9] = high-dose group 28 mg/kg once per day
[10] = low-dose group 14 mg/kg once per day
[11] = dose 28 mg/kg (high dose), 28 mg/kg
[12] = SD, rat, plasma, single oral dose 500 mg/kg, n = 6
[13] = single oral dose 500 mg/kg, n = 6

## COC(=O)c1cc(OC)c2c(c1-c1c(C(=O)OC)cc(OC)c3c1OCO3)OCO2 [Bifendate, bifendate, reference compound]
[1]; [8]
  histological examination of rat livers (H&E): notable alleviation in abnormal areas
TGF-β1; [8]
  expression of TGF-β1 (immunohistochemical staining): a low expression of TGF-β1
[2]; dose 10.5 mg/kg
  ALT: 54.54 ± 21.40 U/L
  AST: 122.56 ± 39.18 U/L
[3]; dose 10.5 mg/kg
  Liver Index: 3.57 ± 0.34 %
  Spleen Index: 0.24 ± 0.04 %

## CC1(C)CCC2(C(=O)O)CC[C@]3(C)C(=CC=C4[C@@]5(C)CCC(=O)C(C)(C)[C@@H]5CC[C@]43C)C2C1 (stereo partly shown) [Oxy-Di-OA, 3-oxours-oleana-9(11), 12-dien-28-oic acid]
[1]; [9]
  histological examination of rat livers (H&E): marked regression and alleviation in the abnormal areas
[1]; [10]
  histological examination of rat livers (H&E): moderate regression of morphological changes
TGF-β1; [9]
  expression of TGF-β1 (immunohistochemical staining): a lower expression of TGF-β1 compared to model group
TGF-β1; [10]
  expression of TGF-β1 (immunohistochemical staining): a lower expression of TGF-β1 compared to model group
[2]; dose 14 mg/kg
  ALT: 77.58 ± 39.58 U/L
  AST: 122.00 ± 52.19 U/L
[2]; dose 28 mg/kg
  ALT: 67.06 ± 51.59 U/L
  AST: 141.89 ± 71.57 U/L
[3]; dose 14 mg/kg
  Liver Index: 3.46 ± 0.38 %
  Spleen Index: 0.24 ± 0.06 %
[3]; [11]
  Liver Index: 3.15% ± 0.36% and 3.15 ± 0.36 *^,# %
  Spleen Index: 0.26% ± 0.05% and 0.26 ± 0.05 %
[4]; read-out: 95% CIs of LD50
  LD50 at 7 days: 640 to 799 mg/kg
[4]; read-out: LD50
  LD50 at 7 days: 715 mg/kg
mice
  dose harmless for further in vivo study: 600 mg/kg
mice; 178 mg/kg
  Death Rate: 0%
mice; 422 mg/kg
  Death Rate: 0%
mice; 600 mg/kg
  Death Rate: 0%
mice; 750 mg/kg
  Death Rate: 67%
mice; 900 mg/kg
  Death Rate: 83%
mice; high dose, one hour after the experiment
  symptoms observed: slow movement and a decrease in aggressiveness
[5]
  LD50 at 7 days: > 2000 mg/kg
[6]; SD, rat, plasma, po, 500 mg/kg, single oral dose 500 mg/kg, n = 6, read-out: AUClast (area under the concentration-time curve from t = 0 to the last time)
  AUC(0-t): 88020 ± 660 ng·h/mL
[6]; [12]
  Cmax: 8180 ± 660 ng/mL
  MRT: 9.48 ± 0.48 h
[6]; SD, rat, plasma, single oral dose 500 mg/kg, n = 6, read-out: Tmax (time to reach peak concentration)
  Tmax: 10 ± 2.19 h
[6]; SD, rat, plasma, single oral dose 500 mg/kg, n = 6, read-out: t1/2 (elimination half-life) (converted)
  half-life: 2.19 ± 0.71 h
[6]; [13]
  CL: 92.9307 ± 16.544 mL/min/kg
  Vz: 18,290.17 ± 9453.59 mL/kg
[6]; single oral dose 500 mg/kg, n = 6, 500 mg/kg
  AUClast (area under the concentration-time curve from t = 0 to the last time): 90210 ± 15680 ng·h/mL
[6]; oleanolic acid data ref 27
  elimination half-life compared with oleanolic acid: longer elimination half-life than its parent compound, oleanolic acid
[7]; freezing and thawing cycles, room temperature 24 h
  stability in plasma biomatrix and processed samples: stable
[7]; methanol solutions, room temperature for 24 h
  concentration relative to the initial concentration: 97.46% to 100.17%
HBV (Hepatitis B Virus)
  anti-HBV activity IC50: 3.13 µg/mL
  inhibition of the rebound of the viral replication rate, compared with lamivudine: superior to the positive drug (Lamivudine)
  inhibition rate of the secretion of HBsAg: 90.52% ± 1.78%
  reduction rate of the secretion of HBeAg: 42.31% ± 3.53%

Source: publication PMC5372569, “A New Oleanolic Acid Derivative against CCl4-Induced Hepatic Fibrosis in Rats” (International Journal of Molecular Sciences, 2017)
